Test results reported in patent US20100056522A1, “INTRAOCULAR PRESSURE-LOWERING AGENT COMPRISING COMPOUND HAVING HISTONE DEACETYLASE INHIBITOR EFFECT AS ACTIVE INGREDIENT” (Santen Pharmaceutical Co., Ltd., priority 2007, published 2010).

What was measured:
[1] = system: HDAC (HeLa nuclear extract); test: Test for evaluation of an HDAC inhibitory effect (HDAC Fluorimetric Assay/Drug Discovery Kit, Biomol); assay type: biochemical; conditions: final concentration of test compound 30 μM, rates of more than 100% are shown as 100%
Experimental: Using HDAC Fluorimetric Assay/Drug Discovery Kit (manufactured by Biomol), an HDAC inhibitory effect of the present compounds was measured according to the protocol included with the kit. The kit contains Buffer, HeLa nuclear extract (includes an HDAC), Substrate, Developer and Trichostatin A (an HDAC inhibitor).
A test compound was dissolved in dimethyl sulfoxide, whereby a 2 mg/mL solution was prepared. Then, the resulting solution was diluted with Buffer containing 5% dimethyl sulfoxide, whereby a 150 μM test compound solution was prepared.
1) To a 384-well culture plate, the test compound solution was added in an amount of 2 μL per well.
2) HeLa nuclear extract was diluted 30-fold with Buffer. The resulting solution was added in an amount of 3 μL per well and then, incubation was performed at 37° C. for 2 hours.
3) Substrate was diluted 500-fold with Buffer. The resulting solution was added in an amount of 5 μL per well (the final concentration of the test compound was 30 μM) and then, incubation was performed at 37° C. for 10 minutes.
4) Developer was diluted 20-fold with Buffer and Trichostatin A (2 μM) was added to it. The resulting solution was added in an amount of 10 μL per well and then, incubation was performed at room temperature for 15 minutes.
5) The fluorescence intensity of each well was measured using multilabel counter ARVO (manufactured by Wallac) with excitation at 360 nm and emission at 460 nm.
6) A control data was obtained from the same experiment except that Buffer containing 5% DMSO was added instead of the test compound solution as the above-mentioned procedure from 1) to 5).
7) A blank data was obtained from the same experiment except that Buffer containing 5% DMSO was added instead of the test compound solution and that Buffer was added instead of Hela nuclear extract as the above-mentioned procedure from 1) to 5).
Enzyme inhibitory rate (%) was calculated using the following equation.
(Enzyme Inhibitory Rate(%))=100×[1−{(Fluorescence Intensity of Test Compound Solution)−(Florescence Intensity of Blank)}/{(Florescence Intensity of Control)−(Florescence Intensity of Blank)}]

[2] = system: TM-1 cells (human trabecular meshwork cell line); test: Test for evaluation of effect of morphological change on trabecular meshwork cells (cell shape index); assay type: cell-based; conditions: 10 μM, 24 hours, control CSI 0.679, lower CSI indicates greater morphological change
Experimental: As a method for evaluating a cellular morphological change, an evaluation system using the cell shape index (hereinafter referred to as “CSI”) as an index has been reported in The Journal of Clinical Investigation, 103, 1141-1150 (1999). Therefore, according to the method described in the above document, an effect of morphological change by the present compounds on trabecular meshwork cells was evaluated.
A human trabecular meshwork cell line (hereinafter referred to as “TM-1 cells”) reported in Investigative Opthalmology & Visual Science, 43, 151-161 (2002) was used.
Culture medium 1: A reagent was prepared by adding fetal bovine serum (10%), L-glutamine (2 mM), amphotericin B (2.5 μg/mL), and gentamicin (25 μg/mL) to Dulbecco's Modified Eagle Medium (hereinafter referred to as “D-MEM”).
Culture medium 2: Fetal bovine serum (3%), L-glutamine (2 mM), amphotericin B (2.5 μg/mL), and gentamicin (25 μg/mL) were added to D-MEM.
Cell staining liquid: A mixed liquid of Calcein-AM (16 μM) and Hoechst 33342 (40 μM) was prepared by diluting a Calcein-AM solution (cytoplasmic staining reagent, manufactured by Dojindo Laboratories) and a Hoechst 33342 solution (nuclear staining reagent, manufactured by Dojindo Laboratories) with D-MEM containing L-glutamine (2 mM), amphotericin B (2.5 μg/mL), and gentamicin (25 μg/mL).
TM-1 cells subcultured at 37° C. in a 8% carbon dioxide gas atmosphere were treated with a trypsin/EDTA solution (0.05% trypsin and 0.53 mM tetrasodium ethylenediaminetetraacetate) at 24 hours before performing a drug treatment mentioned below and seeded on a 96-well culture plate. The culture medium 1 was used for the subculture of the cells. The culture medium 2 was used for the cell culture after seeding the cells on the plate.
A test compound was dissolved in dimethyl sulfoxide, whereby a 5 mM solution was prepared. Then, the resulting solution was diluted with the culture medium 2, whereby a 200 μM test compound solution was prepared.
It has been reported that Y-27632 which is a Rho kinase inhibitor induces a morphological change in trabecular meshwork cells in Investigative Opthalmology & Visual Science, 42, 137-144 (2001). Therefore, Y-27632 (produced according to the method described in WO 90/05723) was used as a positive control, and dissolved in dimethyl sulfoxide in the same manner as the test compound, whereby a 5 mM solution was prepared, and then, the resulting solution was diluted with the culture medium 2, whereby a 200 μM positive control compound solution was prepared.
1) To a 96-well culture plate, a solution of TM-1 cells adjusted to a cell density of […] was added in an amount of 95 μL (1.5×10^4 cells) per well.
2) Incubation was performed at 37° C. in a 8% carbon dioxide gas atmosphere for 24 hours.
3) The test compound solution or positive control compound solution was added in an amount of 5 μL per well (the final concentration of the test compound or positive control compound was 10 μM). As a control, the culture medium 2 containing dimethyl sulfoxide (4%) was added in an amount of 5 μL per well.
4) Incubation was performed at 37° C. in a 8% carbon dioxide gas atmosphere for 24 hours.
5) The cell staining liquid was added in an amount of 10 μL per well.
6) Incubation was performed at 37° C. in a 8% carbon dioxide gas atmosphere for 1 hour to stain the cells.
7) A 37% formaldehyde solution was added in an amount of 10 μL per well.
8) Incubation was performed at room temperature for 1 hour to fix the cells.
9) Washing with phosphate-buffered saline was performed.
10) Using Array Scan Vti HCS reader (manufactured by Cellomics), images of stained cells magnified with a 20-fold objective lens were captured in 80 fields (10 fields×8 wells) per test compound addition group.
11) CSI was calculated for each cell and an average value was obtained for each test compound addition group.
CSI was calculated using the following equation.
CSI=4π×(Cell Area)/(Cell Perimeter)^2

SMILES	Enzyme Inhibitory Rate (%) [1] [%]	CSI [2]
CN(C)CCCN(Cc1ccc(C(=O)Nc2ccccc2N)nc1)C(=O)Nc1nc2ccccc2[nH]1 [Compound 1-31, N-(2-Aminophenyl)-5-[3-(1H-benzimidazol-2-yl)-1-(3-dimethylaminopropyl)ureidomethyl]pyridine-2-carboxylic acid amide]	99	0.551
CN1CCN(CCN(Cc2ccc(C(=O)Nc3ccccc3N)nc2)C(=O)Nc2cccc(F)c2)CC1 [Compound 1-63, N-(2-Aminophenyl)-5-[3-(3-fluorophenyl)-1-[2-(4-methylpiperazin-1-yl)ethyl]ureidomethyl]pyridine-2-carboxylic acid amide]	97	0.521
COc1ccc(NC(=O)N(CCCN(C)C)Cc2ccc(C(=O)Nc3ccccc3N)nc2)cc1 [Compound 1-6, N-(2-Aminophenyl)-5-[1-(3-dimethylaminopropyl)-3-(4-methoxyphenyl)ureidomethyl]pyridine-2-carboxylic acid amide]	100	0.549
Cc1ccc(C(=O)c2cc(/C=C/C(=O)NO)n(C)c2)cc1 [MC1293, (E)-N-Hydroxy-3-[1-methyl-4-(4-methylbenzoyl)-1H-pyrrol-2-yl]-2-propenamide, reference compound]	65	0.628
CN(C)c1ccc(NC(=O)N(CCCN2CCOCC2)Cc2ccc(C(=O)Nc3ccccc3N)nc2)cc1 [Compound 2-1, N-(2-Aminophenyl)-5-[3-(4-dimethylaminophenyl)-1-[3-(morpholin-4-yl)propyl]ureidomethyl]pyridine-2-carboxylic acid amide]	98	0.574
Nc1ccccc1NC(=O)c1ccc(CN(CCCN2CCOCC2)C(=O)Nc2cccnc2)cn1 [Compound 1-8, N-(2-Aminophenyl)-5-[1-[3-(morpholin-4-yl)propyl]-3-(pyridin-3-yl)ureidomethyl]pyridine-2-carboxylic acid amide]	96	0.538
Nc1ccccc1NC(=O)c1ccc(CN(CCCN2CCCC2)C(=O)Nc2cccnc2)cn1 [Compound 1-58, N-(2-Aminophenyl)-5-[3-(pyridin-3-yl)-1-[3-(pyrrolidin-1-yl)propyl]ureidomethyl]pyridine-2-carboxylic acid amide]	98	0.518
COc1ccc2nc(NC(=O)N(CCCN(C)C)Cc3ccc(C(=O)Nc4ccccc4N)nc3)sc2c1 [Compound 1-42, N-(2-Aminophenyl)-5-[1-(3-dimethylaminopropyl)-3-(6-methoxy-1,3-benzothiazol-2-yl)ureidomethyl]pyridine-2-carboxylic acid amide]	98	0.536
O=C(/C=C/c1cccc(C(=O)NO)c1)NO [CBHA, N-Hydroxy-3-[3-hydroxyamino-3-oxo-1-propenyl]benzamide, reference compound]	99	0.545
CN(C)CCCN(Cc1ccc(C(=O)Nc2ccccc2N)nc1)C(=O)NCC(=O)c1ccccc1 [Compound 1-40, N-(2-Aminophenyl)-5-[1-(3-dimethylaminopropyl)-3-(phenylcarbonylmethyl)ureidomethyl]pyridine-2-carboxylic acid amide]	97	0.572
CN(C)CCCN(Cc1ccc(C(=O)Nc2ccccc2N)nc1)C(=O)Nc1cccc(F)c1 [Compound 1-10, N-(2-Aminophenyl)-5-[1-(3-dimethylaminopropyl)-3-(3-fluorophenyl)ureidomethyl]pyridine-2-carboxylic acid amide]	98	0.528
N#Cc1ccc(NC(=O)N(CCCO)Cc2ccc(C(=O)Nc3ccccc3N)nc2)cc1 [Compound 1-24, N-(2-Aminophenyl)-5-[3-(4-cyanophenyl)-1-(3-hydroxypropyl)ureidomethyl]pyridine-2-carboxylic acid amide]	96	0.597
Cc1cccc(NC(=O)N(CCCN2CCC(C)CC2)Cc2ccc(C(=O)Nc3ccccc3N)nc2)c1 [Compound 1-116, N-(2-Aminophenyl)-5-[3-(3-methylphenyl)-1-[3-(4-methylpiperidin-1-yl)propyl]ureidomethyl]pyridine-2-carboxylic acid amide]	100	0.455
CN(C)CCCN(Cc1ccc(C(=O)Nc2ccccc2N)nc1)C(=O)Nc1ccc(F)c(F)c1 [Compound 1-4, N-(2-Aminophenyl)-5-[3-(3,4-difluorophenyl)-1-(3-dimethylaminopropyl)ureidomethyl]pyridine-2-carboxylic acid amide]	100	0.556
Cc1cccc(NC(=O)N(CCN(C)C)Cc2ccc(C(=O)Nc3ccccc3N)nc2)c1 [Compound 1-79, N-(2-Aminophenyl)-5-[1-(2-dimethylaminoethyl)-3-(3-methylphenyl)ureidomethyl]pyridine-2-carboxylic acid amide]	98	0.497
Nc1ccccc1NC(=O)c1ccc(CN(CCCCCN2CCOCC2)C(=O)NC2CCCC2)cn1 [Compound 1-141, N-(2-Aminophenyl)-5-[3-cyclopentyl-1-[5-(morpholin-4-yl)pentyl]ureidomethyl]pyridine-2-carboxylic acid amide]	91	0.515
Nc1ccccc1NC(=O)c1ccc(CN(CCCN2CCOCC2)C(=O)NCCc2ccccc2)cn1 [Compound 1-3, N-(2-Aminophenyl)-5-[1-[3-(morpholin-4-yl)propyl]-3-phenethylureidomethyl]pyridine-2-carboxylic acid amide]	100	0.569
CN(C)CCN(Cc1ccc(C(=O)Nc2ccccc2N)nc1)C(=O)Nc1ccsc1 [Compound 1-56, N-(2-Aminophenyl)-5-[1-(2-dimethylaminoethyl)-3-(thiophen-3-yl)ureidomethyl]pyridine-2-carboxylic acid amide]	97	0.526
C[C@@H](N)[C@H]1CC[C@H](C(=O)Nc2ccncc2)CC1 [Compound Y-27632, reference compound]		0.543
